What was measured:
[1] = NaCl concentration required to stabilize silver-chloro complex salts; assay type: physicochemical; conditions: for NaCl CONCENTRATION REQUIRED TO STABILIZE SILVER-CHLORO COMPLEX SALTS IN AQUEOUS SOLUTION OF 70% (w/v) ETHANOL (b) / NaCl CONCENTRATION REQUIRED TO STABILIZE SILVER-CHLORO COMPLEX SALTS IN WATER (AQUEOUS SOLUTION) (a): 25° C.
Method: The concentration of the chloride in the second antimicrobial agent in accordance with the present invention is not particularly limited, but it is preferable that the chloride be added in a predetermined concentration in accordance with the concentration of the silver-chloro complex salts contained in the antimicrobial agent. […] Specifically, the required concentration of the chloride to stabilize the silver-chloro complex salts (at 25° C.) has the following correlation in water or in a 70%(w/v) ethanol aqueous solution.

[2] = upper limit value of the silver-chloro complex salts in sodium chloride-water-ethanol; assay type: physicochemical; conditions: water and ethanol mixed in the volume ratio of 32:68, 3%(w/v) of sodium chloride
Source text: For example, in the system of silver-chloro complex salts (sodium tetrachloroargentate (I))-sodium chloride-water-ethanol, the upper limit value of the silver-chloro complex salts is 46 ppm when water and ethanol was mixed in the volume ratio of 32:68 and 3%(w/v) of sodium chloride was contained therein.

[3] = silver ion concentration 0.183 ppm
[4] = silver ion concentration 0.410 ppm
[5] = silver ion concentration 2.600 ppm
[6] = silver ion concentration 8.697 ppm
[7] = silver ion concentration 42.189 ppm

In the case of `[Cl][Ag-3]([Cl])([Cl])[Cl].[Na+].[Na+].[Na+]` [SILVER-CHLORO COMPLEX SALTS, sodium tetrachloroargentate (I)], the “ratio of NaCl concentration required in 70% ethanol to that required in water” value (shortened to “ratio … in 70% ethanol to that required in water”) [1, 3] is reported as 0.044, the “NaCl CONCENTRATION REQUIRED TO STABILIZE SILVER-CHLORO COMPLEX SALTS IN AQUEOUS SOLUTION OF 70% (w/v) ETHANOL (b)” value [1, 3] is reported as 0.128 g/L and the “NaCl CONCENTRATION REQUIRED TO STABILIZE SILVER-CHLORO COMPLEX SALTS IN WATER (AQUEOUS SOLUTION) (a)” value [1, 3] is reported as 2.925 g/L. For the same compound, the “ratio … in 70% ethanol to that required in water” value [1, 4] was 0.049, the “NaCl CONCENTRATION REQUIRED TO STABILIZE SILVER-CHLORO COMPLEX SALTS IN AQUEOUS SOLUTION OF 70% (w/v) ETHANOL (b)” value [1, 4] was 0.287 g/L and the “NaCl CONCENTRATION REQUIRED TO STABILIZE SILVER-CHLORO COMPLEX SALTS IN WATER (AQUEOUS SOLUTION) (a)” value [1, 4] was 5.850 g/L. For the same compound, the “ratio … in 70% ethanol to that required in water” value [1, 5] was 0.062, the “NaCl CONCENTRATION REQUIRED TO STABILIZE SILVER-CHLORO COMPLEX SALTS IN AQUEOUS SOLUTION OF 70% (w/v) ETHANOL (b)” value [1, 5] was 1.820 g/L and the “NaCl CONCENTRATION REQUIRED TO STABILIZE SILVER-CHLORO COMPLEX SALTS IN WATER (AQUEOUS SOLUTION) (a)” value [1, 5] was 29.250 g/L. The “ratio … in 70% ethanol to that required in water” value [1, 6] was 0.107, the “NaCl CONCENTRATION REQUIRED TO STABILIZE SILVER-CHLORO COMPLEX SALTS IN AQUEOUS SOLUTION OF 70% (w/v) ETHANOL (b)” value [1, 6] was 6.088 g/L and the “NaCl CONCENTRATION REQUIRED TO STABILIZE SILVER-CHLORO COMPLEX SALTS IN WATER (AQUEOUS SOLUTION) (a)” value [1, 6] was 57.038 g/L. For the same compound, the “ratio … in 70% ethanol to that required in water” value [1, 7] was 0.262, the “NaCl CONCENTRATION REQUIRED TO STABILIZE SILVER-CHLORO COMPLEX SALTS IN AQUEOUS SOLUTION OF 70% (w/v) ETHANOL (b)” value [1, 7] was 29.532 g/L and the “NaCl CONCENTRATION REQUIRED TO STABILIZE SILVER-CHLORO COMPLEX SALTS IN WATER (AQUEOUS SOLUTION) (a)” value [1, 7] was 112.905 g/L. The “upper limit value of the silver-chloro complex salts” value [2] was 46 ppm.
